# Laboratory results: ChEMBL document CHEMBL3632469, “Discovery of dihydroquinazolinone derivatives as potent, selective, and CNS-penetrant M(1) and M(4) muscarinic acetylcholine receptors agonists” (Bioorg Med Chem Lett, 2015)
# Legend:
# Cytochrome P450 1A2 = Cytochrome P450 1A2 (Homo sapiens, UniProt P05177); experiment: Inhibition of CYP1A2 (unknown origin); assay type: ADME
# Cytochrome P450 2C9 = Cytochrome P450 2C9 (Homo sapiens, UniProt P11712); experiment: Inhibition of CYP2C9 (unknown origin); assay type: ADME
# Cytochrome P450 2C19 = Cytochrome P450 2C19 (Homo sapiens, UniProt P33261); experiment: Inhibition of CYP2C19 (unknown origin); assay type: ADME
# Cytochrome P450 2C19, sequence (P33261 whole entry): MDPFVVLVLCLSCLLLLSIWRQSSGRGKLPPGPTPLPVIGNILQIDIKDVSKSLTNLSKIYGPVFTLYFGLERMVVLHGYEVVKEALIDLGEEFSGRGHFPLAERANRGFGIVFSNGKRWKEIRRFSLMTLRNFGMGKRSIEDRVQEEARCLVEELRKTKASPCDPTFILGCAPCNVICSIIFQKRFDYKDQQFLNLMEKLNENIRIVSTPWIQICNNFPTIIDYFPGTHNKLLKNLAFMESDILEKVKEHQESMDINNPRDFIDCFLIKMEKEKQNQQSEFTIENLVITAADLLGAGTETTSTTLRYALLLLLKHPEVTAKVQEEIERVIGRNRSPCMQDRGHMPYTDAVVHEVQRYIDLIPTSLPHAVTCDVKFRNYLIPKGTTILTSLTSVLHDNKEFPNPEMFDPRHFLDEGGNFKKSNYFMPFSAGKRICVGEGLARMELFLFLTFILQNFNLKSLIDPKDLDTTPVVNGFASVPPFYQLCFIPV
# Cytochrome P450 3A4 = Cytochrome P450 3A4 (Homo sapiens, UniProt P08684); experiment: Inhibition of CYP3A4 (unknown origin); assay type: ADME
# Cytochrome P450 3A4, sequence (P08684 whole entry): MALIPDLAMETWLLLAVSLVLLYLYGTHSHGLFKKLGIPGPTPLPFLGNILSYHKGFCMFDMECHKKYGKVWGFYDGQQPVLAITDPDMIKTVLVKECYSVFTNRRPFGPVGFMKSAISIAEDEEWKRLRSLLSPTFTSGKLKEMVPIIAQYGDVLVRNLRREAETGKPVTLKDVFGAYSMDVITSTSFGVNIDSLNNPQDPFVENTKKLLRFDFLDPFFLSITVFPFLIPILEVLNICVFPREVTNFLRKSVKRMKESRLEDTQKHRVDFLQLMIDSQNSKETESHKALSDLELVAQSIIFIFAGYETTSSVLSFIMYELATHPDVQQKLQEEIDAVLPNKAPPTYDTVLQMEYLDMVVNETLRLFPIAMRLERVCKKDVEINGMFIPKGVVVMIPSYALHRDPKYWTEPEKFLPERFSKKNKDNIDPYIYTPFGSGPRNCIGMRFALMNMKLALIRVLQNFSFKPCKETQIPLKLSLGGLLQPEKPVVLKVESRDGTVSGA
# P-glycoprotein = experiment: Binding affinity to p-glycoprotein (unknown origin) assessed as efflux ratio by cell based assay; assay type: ADME; conditions: human, not told
# [1] = molecular target: D(2) dopamine receptor (Homo sapiens) (UniProt P14416); experiment: Binding affinity to dopamine D2 receptor (unknown origin) at 3 uM by radioligand-binding assay
# [2] = molecular target: Histamine H1 receptor (Homo sapiens) (UniProt P35367); experiment: Binding affinity to histamine H1 receptor (unknown origin) at 3 uM by radioligand-binding assay
# Histamine H1 receptor (Homo sapiens), sequence (P35367 whole entry): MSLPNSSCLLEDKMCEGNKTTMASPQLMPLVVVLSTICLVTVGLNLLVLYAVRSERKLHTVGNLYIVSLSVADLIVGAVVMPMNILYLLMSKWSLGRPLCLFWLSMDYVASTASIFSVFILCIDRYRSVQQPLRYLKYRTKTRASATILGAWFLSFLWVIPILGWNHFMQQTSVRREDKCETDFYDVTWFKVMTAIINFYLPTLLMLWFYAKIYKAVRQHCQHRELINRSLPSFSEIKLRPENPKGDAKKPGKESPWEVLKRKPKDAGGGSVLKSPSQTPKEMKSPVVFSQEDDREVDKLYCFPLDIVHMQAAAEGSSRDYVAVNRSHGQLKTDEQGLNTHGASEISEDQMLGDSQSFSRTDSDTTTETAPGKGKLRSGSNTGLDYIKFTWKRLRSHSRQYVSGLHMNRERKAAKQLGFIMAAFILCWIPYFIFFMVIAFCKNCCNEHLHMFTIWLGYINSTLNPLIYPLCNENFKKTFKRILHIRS
# [3] = molecular target: T1, Muscarinic acetylcholine receptor M4 (Homo sapiens) (UniProt P08173); experiment: Partial agonist activity at human muscarinic M4 acetylcholine receptor expressed in CHO cells co-expressing Galpha16 assessed as calcium mobilization by FLIPR assay relative to control; assay type: functional, cell-based
# T1 sequence (whole entry): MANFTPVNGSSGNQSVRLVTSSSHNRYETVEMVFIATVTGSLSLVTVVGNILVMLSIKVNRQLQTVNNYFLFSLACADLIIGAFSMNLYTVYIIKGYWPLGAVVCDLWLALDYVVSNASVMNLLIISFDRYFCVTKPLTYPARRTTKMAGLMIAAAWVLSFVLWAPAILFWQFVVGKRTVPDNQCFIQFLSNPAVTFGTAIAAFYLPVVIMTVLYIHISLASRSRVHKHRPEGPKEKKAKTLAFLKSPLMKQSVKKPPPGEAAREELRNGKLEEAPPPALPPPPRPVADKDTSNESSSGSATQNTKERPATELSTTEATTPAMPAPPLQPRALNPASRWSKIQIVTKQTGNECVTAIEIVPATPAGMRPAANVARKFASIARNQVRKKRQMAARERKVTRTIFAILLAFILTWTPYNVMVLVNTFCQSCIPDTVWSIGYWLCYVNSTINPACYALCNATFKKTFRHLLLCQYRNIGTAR
# [4] = molecular target: Adenosine receptor A1 (Homo sapiens) (UniProt P30542); experiment: Agonist activity at adenosine a1 receptor (unknown origin) expressed in CHO cells assessed as calcium mobilization at 3 uM; assay type: functional, cell-based
# Adenosine receptor A1 (Homo sapiens), sequence (P30542 whole entry): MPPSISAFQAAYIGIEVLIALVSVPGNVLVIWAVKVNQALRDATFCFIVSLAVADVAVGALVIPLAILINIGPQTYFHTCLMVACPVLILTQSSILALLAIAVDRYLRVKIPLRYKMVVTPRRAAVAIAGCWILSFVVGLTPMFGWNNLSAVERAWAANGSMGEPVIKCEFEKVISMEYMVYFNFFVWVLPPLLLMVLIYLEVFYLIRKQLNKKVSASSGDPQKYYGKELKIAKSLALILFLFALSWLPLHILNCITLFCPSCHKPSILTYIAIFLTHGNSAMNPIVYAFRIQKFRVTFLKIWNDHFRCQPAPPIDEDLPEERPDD
# [5] = molecular target: Adenosine receptor A3 (Homo sapiens) (UniProt P0DMS8); experiment: Agonist activity at adenosine a3 receptor (unknown origin) expressed in CHO cells assessed as calcium mobilization at 3 uM; assay type: functional, cell-based
# Adenosine receptor A3 (Homo sapiens), sequence (P0DMS8 whole entry): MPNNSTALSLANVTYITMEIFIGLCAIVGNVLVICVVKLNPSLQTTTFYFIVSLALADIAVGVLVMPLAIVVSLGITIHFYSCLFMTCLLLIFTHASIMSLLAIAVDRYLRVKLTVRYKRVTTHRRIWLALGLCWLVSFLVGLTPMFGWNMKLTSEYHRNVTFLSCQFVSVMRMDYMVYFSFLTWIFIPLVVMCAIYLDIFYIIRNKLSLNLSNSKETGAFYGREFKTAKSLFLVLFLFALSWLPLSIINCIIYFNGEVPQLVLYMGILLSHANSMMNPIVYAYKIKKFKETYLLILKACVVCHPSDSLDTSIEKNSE
# [6] = molecular target: Beta-2 adrenergic receptor (Homo sapiens) (UniProt P07550); experiment: Agonist activity at adrenergic beta2 receptor (unknown origin) expressed in CHO cells assessed as calcium mobilization at 3 uM; assay type: functional, cell-based
# Beta-2 adrenergic receptor (Homo sapiens), sequence (P07550 whole entry, looked up): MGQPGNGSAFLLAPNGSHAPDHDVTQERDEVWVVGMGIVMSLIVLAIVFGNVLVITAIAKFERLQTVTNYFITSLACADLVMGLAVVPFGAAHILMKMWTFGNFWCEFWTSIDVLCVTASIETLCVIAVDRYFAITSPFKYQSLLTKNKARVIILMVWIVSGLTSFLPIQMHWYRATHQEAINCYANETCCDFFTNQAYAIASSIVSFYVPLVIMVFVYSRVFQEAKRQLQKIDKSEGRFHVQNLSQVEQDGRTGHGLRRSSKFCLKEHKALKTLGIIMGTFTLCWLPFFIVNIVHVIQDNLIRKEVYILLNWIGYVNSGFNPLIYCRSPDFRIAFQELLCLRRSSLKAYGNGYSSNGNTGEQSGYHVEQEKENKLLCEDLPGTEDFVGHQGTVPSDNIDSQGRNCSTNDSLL
# [7] = molecular target: Type-1 angiotensin II receptor (Homo sapiens) (UniProt P30556); experiment: Agonist activity at angiotensin 2 type 1 receptor (unknown origin) expressed in CHO cells assessed as calcium mobilization at 3 uM; assay type: functional, cell-based
# [8] = molecular target: Histamine H1 receptor (Homo sapiens) (UniProt P35367); experiment: Agonist activity at histamine H1 receptor (unknown origin) expressed in CHO cells assessed as calcium mobilization at 3 uM; assay type: functional, cell-based
# [9] = molecular target: Histamine H2 receptor (Homo sapiens) (UniProt P25021); experiment: Agonist activity at histamine H2 receptor (unknown origin) expressed in CHO cells assessed as calcium mobilization at 3 uM; assay type: functional, cell-based
# [10] = molecular target: Histamine H3 receptor (Homo sapiens) (UniProt Q9Y5N1); experiment: Agonist activity at histamine H3 receptor (unknown origin) expressed in CHO cells assessed as calcium mobilization at 3 uM; assay type: functional, cell-based
# [11] = molecular target: Cysteinyl leukotriene receptor 1 (Homo sapiens) (UniProt Q9Y271); experiment: Agonist activity at CysLT1 receptor (unknown origin) expressed in CHO cells assessed as calcium mobilization at 3 uM; assay type: functional, cell-based
# [12] = molecular target: Neuropeptide Y receptor type 2 (Homo sapiens) (UniProt P49146); experiment: Agonist activity at NPY2 receptor (unknown origin) expressed in CHO cells assessed as calcium mobilization at 3 uM; assay type: functional, cell-based
# Neuropeptide Y receptor type 2 (Homo sapiens), sequence (P49146 whole entry): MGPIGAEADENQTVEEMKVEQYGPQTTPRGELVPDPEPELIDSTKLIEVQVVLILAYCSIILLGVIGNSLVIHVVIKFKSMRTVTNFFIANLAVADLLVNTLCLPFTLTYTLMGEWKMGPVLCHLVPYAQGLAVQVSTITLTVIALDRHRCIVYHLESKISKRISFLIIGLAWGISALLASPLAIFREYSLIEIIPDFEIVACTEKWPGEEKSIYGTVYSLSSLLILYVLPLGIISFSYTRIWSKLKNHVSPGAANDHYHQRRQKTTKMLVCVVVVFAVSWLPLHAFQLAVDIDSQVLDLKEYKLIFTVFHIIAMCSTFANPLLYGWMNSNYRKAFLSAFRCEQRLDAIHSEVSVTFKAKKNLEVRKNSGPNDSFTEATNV
# [13] = molecular target: Delta-type opioid receptor (Homo sapiens) (UniProt P41143); experiment: Agonist activity at opiate delta1 receptor (unknown origin) expressed in CHO cells assessed as calcium mobilization at 3 uM; assay type: functional, cell-based
# Delta-type opioid receptor (Homo sapiens), sequence (P41143 whole entry): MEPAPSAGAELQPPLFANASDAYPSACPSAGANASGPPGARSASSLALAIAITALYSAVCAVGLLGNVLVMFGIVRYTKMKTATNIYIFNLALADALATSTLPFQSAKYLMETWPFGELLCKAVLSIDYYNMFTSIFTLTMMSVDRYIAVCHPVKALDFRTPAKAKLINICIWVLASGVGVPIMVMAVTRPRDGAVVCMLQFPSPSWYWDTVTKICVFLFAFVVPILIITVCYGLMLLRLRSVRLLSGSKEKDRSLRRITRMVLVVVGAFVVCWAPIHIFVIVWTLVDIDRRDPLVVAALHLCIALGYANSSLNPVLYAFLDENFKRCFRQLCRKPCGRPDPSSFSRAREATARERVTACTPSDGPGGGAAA
# [14] = molecular target: Mu-type opioid receptor (Homo sapiens) (UniProt P35372); experiment: Agonist activity at ppiate mu receptor (unknown origin) expressed in CHO cells assessed as calcium mobilization at 3 uM; assay type: functional, cell-based
# [15] = molecular target: 5-hydroxytryptamine receptor 1E (Homo sapiens) (UniProt P28566); experiment: Agonist activity at 5-HT1E receptor (unknown origin) expressed in CHO cells assessed as calcium mobilization at 3 uM; assay type: functional, cell-based
# 5-hydroxytryptamine receptor 1E (Homo sapiens), sequence (P28566 whole entry): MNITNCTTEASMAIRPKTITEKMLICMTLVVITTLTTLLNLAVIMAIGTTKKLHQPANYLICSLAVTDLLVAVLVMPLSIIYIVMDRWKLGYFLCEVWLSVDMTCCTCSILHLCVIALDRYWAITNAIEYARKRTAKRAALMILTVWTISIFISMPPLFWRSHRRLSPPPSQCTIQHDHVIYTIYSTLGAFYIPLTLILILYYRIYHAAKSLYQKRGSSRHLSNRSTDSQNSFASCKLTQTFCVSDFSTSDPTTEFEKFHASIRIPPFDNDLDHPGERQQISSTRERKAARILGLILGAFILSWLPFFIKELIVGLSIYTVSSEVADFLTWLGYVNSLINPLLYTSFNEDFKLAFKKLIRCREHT
# [16] = molecular target: 5-hydroxytryptamine receptor 2B (Homo sapiens) (UniProt P41595); experiment: Agonist activity at 5-HT2B receptor (unknown origin) expressed in CHO cells assessed as calcium mobilization at 3 uM; assay type: functional, cell-based
# [17] = molecular target: 5-hydroxytryptamine receptor 5A (Homo sapiens) (UniProt P47898); experiment: Agonist activity at 5-HT5a receptor (unknown origin) expressed in CHO cells assessed as calcium mobilization at 3 uM; assay type: functional, cell-based
# 5-hydroxytryptamine receptor 5A (Homo sapiens), sequence (P47898 whole entry): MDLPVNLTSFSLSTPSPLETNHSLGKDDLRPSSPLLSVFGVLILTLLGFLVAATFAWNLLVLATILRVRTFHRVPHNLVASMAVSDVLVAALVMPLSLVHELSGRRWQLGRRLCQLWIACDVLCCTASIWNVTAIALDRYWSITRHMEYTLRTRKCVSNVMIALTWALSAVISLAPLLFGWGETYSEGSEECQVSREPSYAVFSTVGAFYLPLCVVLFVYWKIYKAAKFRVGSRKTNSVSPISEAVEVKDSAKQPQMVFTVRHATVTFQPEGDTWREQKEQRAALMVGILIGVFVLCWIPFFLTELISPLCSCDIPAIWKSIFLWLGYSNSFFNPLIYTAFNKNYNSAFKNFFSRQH
# [18] = molecular target: Adenosine receptor A1 (Homo sapiens) (UniProt P30542); experiment: Antagonist activity at adenosine a1 receptor (unknown origin) expressed in CHO cells assessed as calcium mobilization at 3 uM; assay type: functional, cell-based
# [19] = molecular target: Adrenergic receptor alpha-1 (Homo sapiens) (UniProt P35348+P25100+P35368); experiment: Antagonist activity at adrenergic a1 receptor (unknown origin) expressed in CHO cells assessed as calcium mobilization at 3 uM; assay type: functional, cell-based
# [20] = molecular target: Alpha-2A adrenergic receptor (Homo sapiens) (UniProt P08913); experiment: Antagonist activity at adrenergic a2a receptor (unknown origin) expressed in CHO cells assessed as calcium mobilization at 3 uM; assay type: functional, cell-based
# Alpha-2A adrenergic receptor (Homo sapiens), sequence (P08913 whole entry): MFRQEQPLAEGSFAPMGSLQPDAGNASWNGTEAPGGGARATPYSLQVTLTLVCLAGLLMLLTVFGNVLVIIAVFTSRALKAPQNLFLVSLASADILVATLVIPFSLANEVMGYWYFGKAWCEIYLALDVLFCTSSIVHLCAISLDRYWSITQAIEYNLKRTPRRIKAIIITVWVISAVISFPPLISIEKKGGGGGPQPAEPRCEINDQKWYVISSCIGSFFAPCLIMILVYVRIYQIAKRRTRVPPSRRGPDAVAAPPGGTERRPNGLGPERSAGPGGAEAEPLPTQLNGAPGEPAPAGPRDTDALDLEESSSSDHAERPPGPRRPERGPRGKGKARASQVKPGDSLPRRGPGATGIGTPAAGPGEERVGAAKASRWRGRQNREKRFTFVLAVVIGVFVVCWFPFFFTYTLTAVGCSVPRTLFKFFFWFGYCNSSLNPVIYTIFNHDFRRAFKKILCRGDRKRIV
# [21] = molecular target: Beta-2 adrenergic receptor (Homo sapiens) (UniProt P07550); experiment: Antagonist activity at adrenergic beta2 receptor (unknown origin) expressed in CHO cells assessed as calcium mobilization at 3 uM; assay type: functional, cell-based
# [22] = molecular target: 5-hydroxytryptamine receptor 1B (Homo sapiens) (UniProt P28222); experiment: Antagonist activity at 5-HT1B receptor (unknown origin) expressed in CHO cells assessed as calcium mobilization at 3 uM; assay type: functional, cell-based
# 5-hydroxytryptamine receptor 1B (Homo sapiens), sequence (P28222 whole entry): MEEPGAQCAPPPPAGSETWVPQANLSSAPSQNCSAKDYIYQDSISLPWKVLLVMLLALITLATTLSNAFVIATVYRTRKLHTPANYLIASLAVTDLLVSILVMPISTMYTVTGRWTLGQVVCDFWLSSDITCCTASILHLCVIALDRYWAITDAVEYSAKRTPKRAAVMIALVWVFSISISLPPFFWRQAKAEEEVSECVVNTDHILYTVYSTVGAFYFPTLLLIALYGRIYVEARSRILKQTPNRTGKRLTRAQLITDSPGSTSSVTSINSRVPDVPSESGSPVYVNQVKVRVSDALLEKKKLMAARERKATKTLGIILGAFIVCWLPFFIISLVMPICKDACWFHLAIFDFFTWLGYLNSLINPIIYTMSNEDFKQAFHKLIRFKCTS
# [23] = molecular target: 5-hydroxytryptamine receptor 1E (Homo sapiens) (UniProt P28566); experiment: Antagonist activity at 5-HT1E receptor (unknown origin) expressed in CHO cells assessed as calcium mobilization at 3 uM; assay type: functional, cell-based
# [24] = molecular target: 5-hydroxytryptamine receptor 2C (Homo sapiens) (UniProt P28335); experiment: Antagonist activity at 5-HT2C receptor (unknown origin) expressed in CHO cells assessed as calcium mobilization at 3 uM; assay type: functional, cell-based
compound,measurement,setting,value
CCOC(=O)N1[C@@H]2CC[C@H]1C[C@H](CN1CC[C@@H](N3Cc4ccccc4NC3=O)C1)C2,IC50,Cytochrome P450 1A2,> 2 µM
same,IC50,Cytochrome P450 2C9,> 2 µM
same,IC50,Cytochrome P450 2C19,> 2 µM
same,IC50,Cytochrome P450 3A4,> 2 µM
same,efflux ratio,P-glycoprotein,1
same,inhibition,[1],13%
same,inhibition,[2],6%
same,Activity,[3],51%
same,Activity,[4],-0.25%
same,Activity,[5],1.07%
same,Activity,[6],-0.21%
same,Activity,[7],-0.18%
same,Activity,[8],0.17%
same,Activity,[9],-0.83%
same,Activity,[10],-0.38%
same,Activity,[11],0.45%
same,Activity,[12],1.73%
same,Activity,[13],-0.04%
same,Activity,[14],1%
same,Activity,[15],0.11%
same,Activity,[16],-0.03%
same,Activity,[17],-1.06%
same,inhibition,[18],-3.67%
same,inhibition,[19],5.57%
same,inhibition,[20],9.18%
same,inhibition,[21],0.18%
same,inhibition,[22],10.5%
same,inhibition,[23],-0.04%
same,inhibition,[24],-5.25%
